Experimental data reported in the supplement of paper PMC10307832.

Tests used:
Assay in all cases: relative viability (nuclei count vs DMSO), 5 days (fraction); higher = more cells survive
Dactolisib + Olaparib = compound: Cn1c(=O)n(-c2ccc(C(C)(C)C#N)cc2)c2c3cc(-c4cnc5ccccc5c4)ccc3ncc21 [Dactolisib] + O=C(c1cc(Cc2n[nH]c(=O)c3ccccc23)ccc1F)N1CCN(C(=O)C2CC2)CC1 [Olaparib] (partner 8 µM)
Outline: (§1)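 After 5 days of treatment, lung cancer cells in 1536-well plates were fixed and stained in a single step (final 0.05% Triton X-100, 1% formaldehyde, 1 ug/ml Hoechst) and their nuclei counted on 4× images. Treatment had been applied by pin tool the day after seeding as one drug alone or as a fixed anchor-drug dose with five library-drug doses (not always all listed) in √10 steps. Relative viability is the nuclei count of treated wells divided by that of vehicle wells, and values are medians of duplicate plates.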

AZ505 + Linsitinib = compound: C1CCC(CC1)N(CCNCCC2=C3C(=C(C=C2)O)NC(=O)CO3)C(=O)CCNCCC4=CC(=C(C=C4)Cl)Cl [AZ505] + C[C@]1(O)C[C@@H](c2nc(-c3ccc4ccc(-c5ccccc5)nc4c3)c3c(N)nccn32)C1 [Linsitinib] (partner 1 µM)
Outline: as §1

Dactolisib + Crizotinib = compound: Cn1c(=O)n(-c2ccc(C(C)(C)C#N)cc2)c2c3cc(-c4cnc5ccccc5c4)ccc3ncc21 [Dactolisib] + C[C@@H](Oc1cc(-c2cnn(C3CCNCC3)c2)cnc1N)c1c(Cl)ccc(F)c1Cl [Crizotinib] (partner 1 µM)
Outline: as §1

Dactolisib + Pemetrexed = compound: Cn1c(=O)n(-c2ccc(C(C)(C)C#N)cc2)c2c3cc(-c4cnc5ccccc5c4)ccc3ncc21 [Dactolisib] + Nc1nc2[nH]cc(CCc3ccc(C(=O)N[C@@H](CCC(=O)O)C(=O)O)cc3)c2c(=O)[nH]1 [Pemetrexed] (partner 0.2 µM)
Outline: as §1

Row | Cell Line | relative viability (Dactolisib + Olaparib; first compound 0.002 µM) | relative viability (Dactolisib + Olaparib; first compound 0.006325 µM) | relative viability (Dactolisib + Olaparib; first compound 0.02 µM) | relative viability (Dactolisib + Olaparib; first compound 0.06325 µM) | relative viability (Dactolisib + Olaparib; first compound 0.2 µM) | relative viability (AZ505 + Linsitinib; first compound 0.08 µM) | relative viability (AZ505 + Linsitinib; first compound 0.253 µM) | relative viability (AZ505 + Linsitinib; first compound 0.8 µM) | relative viability (AZ505 + Linsitinib; first compound 2.53 µM) | relative viability (AZ505 + Linsitinib; first compound 8 µM) | relative viability (Dactolisib + Crizotinib; first compound 0.002 µM) | relative viability (Dactolisib + Crizotinib; first compound 0.006325 µM) | relative viability (Dactolisib + Crizotinib; first compound 0.02 µM) | relative viability (Dactolisib + Crizotinib; first compound 0.06325 µM) | relative viability (Dactolisib + Crizotinib; first compound 0.2 µM) | relative viability (Dactolisib + Pemetrexed; first compound 0.002 µM) | relative viability (Dactolisib + Pemetrexed; first compound 0.006325 µM) | relative viability (Dactolisib + Pemetrexed; first compound 0.02 µM) | relative viability (Dactolisib + Pemetrexed; first compound 0.06325 µM) | relative viability (Dactolisib + Pemetrexed; first compound 0.2 µM)
1 | EBC-1 | 0.809 | 0.645 | 0.648 | 0.19 | 0.176 | 0.87 | 0.833 | 1.01 | 0.841 | 0.896 | 0.226 | 0.181 | 0.208 | 0.198 | 0.2 |  |  |  |  | 
2 | A-427 | 0.877 | 0.675 | 0.707 | 0.619 | 0.495 | 1.13 | 1.08 | 1.09 | 1.11 | 1.09 | 0.93 | 0.856 | 0.844 | 0.615 | 0.48 | 1.09 | 1.03 | 0.968 | 0.8 | 0.644
3 | NCI-H2347 | 0.693 | 0.54 | 0.531 | 0.471 | 0.407 | 0.6 | 0.603 | 0.668 | 0.543 | 0.714 | 0.836 | 0.619 | 0.613 | 0.46 | 0.464 | 0.459 | 0.459 | 0.426 | 0.411 | 0.422
4 | NCI-H1355 | 0.831 | 0.684 | 0.644 | 0.443 | 0.27 | 0.787 | 0.783 | 0.81 | 0.684 | 0.826 | 1.18 | 1.09 | 0.99 | 0.488 | 0.326 | 1.08 | 1.03 | 1.02 | 0.861 | 0.65
5 | NCI-H358 | 0.675 | 0.557 | 0.552 | 0.478 | 0.169 | 0.733 | 0.689 | 0.689 | 0.752 | 0.669 | 0.702 | 0.705 | 0.738 | 0.391 | 0.189 | 0.164 | 0.164 | 0.159 | 0.134 | 0.14
6 | PC-3 [JPC-3] | 1.17 | 1.07 | 1.21 | 1.02 | 0.963 | 0.923 | 0.935 | 0.938 | 0.862 | 0.947 | 1.08 | 0.979 | 0.916 | 0.874 | 0.768 | 1.35 | 1.11 | 1 | 1.26 | 0.555
7 | NCI-H2228 | 1.01 | 0.486 | 0.326 | 0.177 | 0.104 | 0.418 | 0.651 | 0.53 | 0.549 | 0.49 | 0.601 | 0.283 | 0.297 | 0.252 | 0.175 | 0.35 | 0.352 | 0.324 | 0.252 | 0.144
8 | HOP-62 | 0.378 | 0.464 | 0.542 | 0.298 | 0.36 | 0.932 | 1.03 | 1.08 | 0.863 | 1.08 | 1.06 | 1.01 | 0.923 | 0.505 | 0.472 | 0.305 | 0.33 | 0.341 | 0.262 | 0.25
